Measured values as given in patent US10413502B2, “Cosmetic use of a peppermint extract” (LVMH RECHERCHE, priority 2015, dated 2019).

System: gap junctions between keratinocytes
Assay: Transfer of the dye lucifer yellow between keratinocytes via gap junctions
Format: cell-based
Conditions: substance alone

For C[C@H](NC(=O)Cc1cc(F)cc(F)c1)C(=O)N[C@H](C(=O)OC(C)(C)C)c1ccccc1 [DAPT, N—[N-(3,5-difluorophenacetyl)-L-alanyl]-S-phenylglycine t-butyl ester], the “diffusion of lucifer yellow between keratinocytes (exchanges via gap junctions)” value was “greatly reduced”.
